# Data taken from patent publication EP0431076B1, “PENTACYCLIC TRITERPENOID COMPOUNDS AS TOPOISOMERASE INHIBITORS OR CELL DIFFERENTIATION INDUCERS” (RESEARCH TRIANGLE INSTITUTE, priority 1988, dated 1990).
# Target: T1, DNA topoisomerase I (Homo sapiens, UniProt P11387)
# T1 construct: DNA topoisomerase I was purified to homogeneity from chronic human leukemic cells; from tissue; host or cells: chronic human leukemic cells (endogenous enzyme, purified)
# T1 sequence (P11387 1-765): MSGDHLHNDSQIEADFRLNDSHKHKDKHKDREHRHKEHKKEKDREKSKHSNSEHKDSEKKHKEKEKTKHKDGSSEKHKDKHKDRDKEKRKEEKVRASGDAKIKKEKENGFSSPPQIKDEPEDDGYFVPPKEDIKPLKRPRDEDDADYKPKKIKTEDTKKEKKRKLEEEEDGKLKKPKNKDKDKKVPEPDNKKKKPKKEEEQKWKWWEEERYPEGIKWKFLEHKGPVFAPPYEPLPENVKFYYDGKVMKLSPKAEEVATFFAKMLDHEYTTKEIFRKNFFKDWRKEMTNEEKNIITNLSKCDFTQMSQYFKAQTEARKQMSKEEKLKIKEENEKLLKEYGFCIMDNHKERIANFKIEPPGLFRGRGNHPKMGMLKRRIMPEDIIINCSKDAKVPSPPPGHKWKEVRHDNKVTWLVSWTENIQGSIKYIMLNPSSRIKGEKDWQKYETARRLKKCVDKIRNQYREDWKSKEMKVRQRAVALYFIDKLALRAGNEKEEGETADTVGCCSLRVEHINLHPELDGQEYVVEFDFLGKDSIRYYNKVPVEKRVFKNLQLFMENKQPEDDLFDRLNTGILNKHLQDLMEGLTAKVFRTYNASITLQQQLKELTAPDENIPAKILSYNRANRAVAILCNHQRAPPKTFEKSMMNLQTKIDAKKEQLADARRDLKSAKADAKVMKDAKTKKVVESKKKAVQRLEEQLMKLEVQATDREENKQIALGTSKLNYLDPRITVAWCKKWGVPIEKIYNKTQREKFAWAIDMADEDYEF
# Assay: Topoisomerase I inhibition, supercoiled pBR 322 DNA relaxation assay
# Format: biochemical
# Details: gel analysis, Figure 5
# Excerpt: Topoisomerase I inhibitory activity was monitored by using the supercoiled pBR 322 DNA relaxation assay according to a published procedure [Liu et al., Proc. Natl. Acad. Sci., U.S.A., 76, 3487 ([…])].
# DNA topoisomerase I was purified to homogeneity from chronic human leukemic cells. Plasmid pBR 322 DNA was purified by phenol deproteinization of cleared lysates followed by CsCl/ethidium isopycnic centrifugation and gel filtration.
potency in topoisomerase I inhibition compared with standard camptothecin (in words),potency in topoisomerase I inhibition relative to standard camptothecin (fold potency versus camptothecin),Compound
comparable potency,,"CC(=O)O[C@@H]1CC[C@@]2(C)[C@@H](CC[C@]3(C)[C@@H]2CC=C2[C@@H]4[C@@H](C)[C@H](C)CC[C@]4(C)CC[C@]23C)[C@@]1(C)C(=O)O [B-1, β-boswellic acid acetate]"
,~3 X,"CC(=O)O[C@@H]1CC[C@@]2(C)[C@@H](CC[C@]3(C)[C@@H]2CC=C2[C@@H]4CC(C)(C)CC[C@]4(C)CC[C@]23C)[C@@]1(C)C(=O)O [A-1, α-boswellic acid acetate]"
